This assay addresses T1, abc isoform of human TMEM16A channel expressed in CHO cells (Homo sapiens, UniProt Q5XXA6, DEL476-501).
T1 construct: expressed in transfected cells; host or cells: CHO cells, doxycycline-inducible expression under Blasticidin/Zeocin selection
T1 sequence (Q5XXA6 with tags, fused parts or gaps isoform Q5XXA6-5 DEL539-564): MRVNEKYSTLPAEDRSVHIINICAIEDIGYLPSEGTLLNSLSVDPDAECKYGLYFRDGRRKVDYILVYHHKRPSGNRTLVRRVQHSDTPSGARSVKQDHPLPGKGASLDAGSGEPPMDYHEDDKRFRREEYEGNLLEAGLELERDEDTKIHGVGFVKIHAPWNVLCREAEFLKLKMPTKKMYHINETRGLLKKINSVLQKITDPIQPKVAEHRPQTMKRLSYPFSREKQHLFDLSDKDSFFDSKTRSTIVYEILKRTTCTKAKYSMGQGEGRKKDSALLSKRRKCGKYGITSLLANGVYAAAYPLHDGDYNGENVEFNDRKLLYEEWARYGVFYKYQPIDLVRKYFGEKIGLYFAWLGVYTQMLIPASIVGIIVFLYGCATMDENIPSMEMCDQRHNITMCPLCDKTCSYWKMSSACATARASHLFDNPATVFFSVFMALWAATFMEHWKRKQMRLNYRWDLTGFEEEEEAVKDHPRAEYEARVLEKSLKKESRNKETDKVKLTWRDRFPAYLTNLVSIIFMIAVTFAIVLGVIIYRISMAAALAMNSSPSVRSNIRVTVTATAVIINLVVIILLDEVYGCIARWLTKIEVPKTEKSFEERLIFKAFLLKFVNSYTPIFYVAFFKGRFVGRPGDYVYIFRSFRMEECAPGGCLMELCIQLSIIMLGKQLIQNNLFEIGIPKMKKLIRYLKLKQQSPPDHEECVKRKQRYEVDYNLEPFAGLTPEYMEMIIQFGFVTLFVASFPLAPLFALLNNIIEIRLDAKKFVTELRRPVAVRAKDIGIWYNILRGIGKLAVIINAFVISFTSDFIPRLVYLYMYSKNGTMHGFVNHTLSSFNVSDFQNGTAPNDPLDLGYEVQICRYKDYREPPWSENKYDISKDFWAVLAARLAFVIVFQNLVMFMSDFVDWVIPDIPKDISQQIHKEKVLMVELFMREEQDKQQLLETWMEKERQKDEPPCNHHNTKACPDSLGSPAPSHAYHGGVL
Put plainly: Automated patch clamping (QPatch) assay to measure TMEM16A activity in whole-cell. The class given is cell-based. As to conditions: for EC50: CHO cells expressing human TMEM16A (abc), whole-cell automated patch clamp, Hill fit, read-out: TMEM16A QPATCH assay EC50 V3 EC50; for Emax: CHO, maximum current at highest dose relative to reference potentiator at maximal concentration (upper limit) and vehicle (lower limit), read-out: TMEM16A QPATCH assay EC50 V3 Assay Window (% TMEM16A max activation). The gist of the method: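 CHO cells with doxycycline-induced (1 μg/mL, 18-24 h) human TMEM16A abc isoform; QPatch whole-cell recording, hold −70 mV, step +70 mV 1500 ms, then −90 to +70 mV ramp. Compounds in 0.3% DMSO; EC50 by Hill fit; % max activation relative to vehicle baseline and reference potentiator maximum.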

Broadly, the EC50 is the midpoint of the concentration-response curve.

For the compound `O=C(NC(C1CC1)C1CC1)c1nnc(-c2cccc(-c3ncc(C(=O)NC(C4CC4)C4CC4)o3)c2)[nH]1` [Example 12.8, N-(Dicyclopropylmethyl)-2-(3-(5-((Dicyclopropylmethyl)Carbamoyl)-4H-1,2,4-Triazol-3-Yl)Phenyl)Oxazole-5-Carboxamide], the EC50 stood at 20 nM and the Emax is 119%.

For `COC(=O)[C@@H](NC(=O)c1cnc(-c2cccc(-c3nnc(C(=O)NC(C4CC4)C4CC4)[nH]3)c2)o1)C(C)C` [Example 12.9, (S)-Methyl 2-(2-(3-(5-((Dicyclopropylmethyl)Carbamoyl)-4H-1,2,4-Triazol-3-Yl)Phenyl)Oxazole-5-Carboxamido)-3-Methylbutanoate], the EC50 stood at 20 nM and the Emax worked out at 134%.

For the compound `COC(=O)[C@@H](NC(=O)c1cnc(-c2cccc(-c3nnc(C(=O)N[C@@H](C)C4CC4)[nH]3)c2)o1)C(C)(C)C` [Example 12.10, (S)-Methyl 2-(2-(3-(5-(((S)-1-Cyclopropylethyl)Carbamoyl)-4H-1,2,4-Triazol-3-Yl)Phenyl)Oxazole-5-Carboxamido)-3,3-Dimethylbutanoate], the EC50 worked out at 190 nM and the Emax was determined as 92%.

As to `CC(C)[C@H](C)NC(=O)c1cnc(-c2cccc(-c3nnc(C(=O)N[C@@H](C)C4CC4)[nH]3)c2)o1` [Example 12.11], the EC50 came to 150 nM and the Emax was 80%.

With `CC(C)OC(=O)[C@@H](NC(=O)c1cnc(-c2cccc(-c3nnc(C(=O)N[C@@H](C)C4CC4)[nH]3)c2)o1)C(C)C` [Example 12.12], the EC50 came out at 190 nM and the Emax came out at 92%.

For the compound `COC(=O)[C@H](CC(C)C)NC(=O)c1cnc(-c2cccc(-c3nnc(C(=O)N[C@@H](C)C4CC4)[nH]3)c2)o1` [Example 12.13], the EC50 amounted to 290 nM and the Emax was 99%.

Regarding `CCOC(=O)[C@@H](NC(=O)c1cnc(-c2cccc(-c3nc(C(=O)NC(C4CC4)C(F)(F)F)n[nH]3)c2)o1)C(C)C` (stereo partly drawn) [Example 12.14], the EC50 was found to be 80 nM and the Emax worked out at 97%.

As to `C[C@H](NC(=O)c1nnc(-c2cccc(-c3ncc(C(=O)NC4(C5CC5)CC4)o3)c2)[nH]1)C1CC1` [Example 12.15], the EC50 amounted to 390 nM and the Emax stood at 72%.

As to `C[C@H](NC(=O)c1nnc(-c2cccc(-c3ncc(C(=O)NC45CC6CC(CC(C6)C4)C5)o3)c2)[nH]1)C1CC1` [Example 12.16, (S)-N-(Adamantan-1-Yl)-2-(3-(5-((1-Cyclopropylethyl)Carbamoyl)-4H-1,2,4-Triazol-3-Yl)Phenyl)Oxazole-5-Carboxamide], the EC50 is 420 nM and the Emax is 85%.

As to `COC(=O)[C@H](CC1CCCCC1)NC(=O)c1cnc(-c2cccc(-c3nnc(C(=O)N[C@@H](C)C4CC4)[nH]3)c2)o1` [Example 12.17, (S)-Methyl 3-Cyclohexyl-2-(2-(3-(5-(((S)-1-Cyclopropylethyl)Carbamoyl)-4H-1,2,4-Triazol-3-Yl)Phenyl)Oxazole-5-Carboxamido)Propanoate], the EC50 turned out to be 470 nM and the Emax was determined as 77%.

For the compound `C[C@H](NC(=O)c1cnc(-c2cccc(-c3nnc(C(=O)N[C@H](C)C4CC4)[nH]3)c2)o1)C1CC1` [Example 13.0, N-((S)-1-Cyclopropylethyl)-2-(3-(5-(((R)-1-Cyclopropylethyl)Carbamoyl)-4H-1,2,4-Triazol-3-Yl)Phenyl)Oxazole-5-Carboxamide], the EC50 was 310 nM and the Emax is 74%.

For `C[C@@H](NC(=O)c1nnc(-c2cccc(-c3ncc(C(=O)NC(C4CC4)C4CC4)o3)c2)[nH]1)C1CC1` [Example 13.1, (R)-2-(3-(5-((1-Cyclopropylethyl)Carbamoyl)-4H-1,2,4-Triazol-3-Yl)Phenyl)-N-(Dicyclopropylmethyl)Oxazole-5-Carboxamide], the EC50 amounted to 110 nM and the Emax was found to be 88%.

(Values after US20220306617A1, “SUBSTITUTED 1,3-PHENYL HETEROARYL DERIVATIVES AND THEIR USE IN THE TREATMENT OF DISEASE” (NOVARTIS AG, priority 2019, published 2022).)
